Assay results reported in patent US5204311A, “Ethanediimidic acid bis[(arylalkylidene)hydrazide] color-formers” (Minnesota Mining and Manufacturing Company, priority 1991, dated 1993).
Entries after “also recorded” stand apart in the source; their conditions may differ.

How the values were obtained:
[1] = Color (Hunter coordinates) of Ni complex, swabbed on Ni-coated receptor (CF) sheet; type: physicochemical; design: key to Hunter coordinate a / Hunter Coordinates a: Hunter a: +a red, -a green; key to Hunter coordinate b / Hunter Coordinates b: Hunter b: +b yellow, -b blue; details: for Chroma: C=(a^2 +b^2)^1/2; for Chroma / Hunter Coordinates L / Hunter Coordinates a / Hunter Coordinates b / Image Color: Ni(II) complex; for Chroma / Image Color: swab concn. 1% (Table 2); for Hunter Coordinates L / Hunter Coordinates a / Hunter Coordinates b: swab concn. 1%, 45°/0° reflectance, illuminant C (Table 2); for color of nickel / transition metal coordination compound (in words) / Chroma (in words): description
Protocol: In general, the colors of the complexes, as listed in Table 2 and Experiments 4, 6, and 7 below, were determined by preparing a 1% solution of the color-former or mixture of color-formers in an appropriate solvent. Unless otherwise indicated, the solvent was composed of a mixture of tributyl phosphate (26.5%), diethyl phthalate (17.6%), and cyclohexane (55.9%). The images were formed by applying two stripes of the solution to a substrate coated with a Ni^2+ coated receptor sheet using a cotton tipped applicator swab. Rapid and complete development of the image was achieved by passing the sheet through a hot shoe adjusted to 102° C., making a revolution every 10 seconds. The visually observed colors were measured and recorded.
One method of color measurement is to determine the color's position in color space. One color space system is the Hunter System; see F. W. Billmeyer, Jr., and M. Saltzman, Principles of Color Technology; John Wiley & Sons; New York, N.Y.; Ch. 2 & 3, 1981. In this system three mutually perpendicular axes (L, a, and b) are needed to define a color. "L" (+z axis) represents the lightness or darkness of the image; "a" (x axis) represents the amount of red or green (+a is red, -a is green); and "b" (y axis) represents the amount of yellow or blue (+b is yellow, -b is blue). By measuring a material's L, a, and b values, the color of one sample can be compared with that of other samples. Another value used in the Hunter System is Chroma (C). Chroma is defined by the equation [C=(a^2 +b^2)^1/2 ] and represents the distance of the image coordinates from the origin. The greater the Chroma, the more intense the image. Chroma is used to compare images cf the same hue. Because the color of a sample is also dependent upon the color temperature of the illuminating source, the angle at which the sample is illuminated, the angle at which the illumination is reflected, and the angle of the retina illuminated, these all need to be specified. Many instruments have been developed to record these values. One such instrument is the HunterLab LabScan II. This instrument is capable of automatically determining the L, a, and b values for a given sample, and was used for the following examples.
The L, a, and b color coordinates of the more uniform stripe were measured for 45°/0° reflectance on a HunterLab LabScan II, secondary observer, using illuminant C. The observed (image) color and the Hunter coordinates for Ni^2+ complexes of the yellow color-formers of this invention are given in Table 2.
A 1% solution of the condensation product in the encapsulation fill mix was swabbed onto a carbonless paper CF sheet (sold by the 3M Co. St. Paul, Minn.) with a cotton swab. The reflectance spectra had Hunter coordinates of: […]

[2] = Solubility in capsule fill solvents; type: physicochemical
Protocol: The encapsulation process requires the color-forming ligand be dissolved in a solvent or mixed solvents, because of the nature of the procedure. Formation of a microcapsule shell as by condensation of urea or melamine with an aldehyde such as formaldehyde or mixtures of aldehydes to form the capsule shell is carried out in an acidic aqueous medium and the color-former solution must be insoluble and unreactive to these reagents for the encapsulation to proceed. Solvents commonly used include tributyl phosphate, diethyl phthalate, and cyclohexane. […] As mentioned above, solubility of yellow color-formers exemplified by structure I in nonaqueous solvents such as those used in the encapsulation process may be increased by substituting alkyl, aryl, aralkyl, alkenyl, or such groups for the hydrogens on the various positions available in the structure I above.
This color observed on the CF sheet was yellow. […] Solubility in a solvent blend of tributyl phosphate, diethyl phthalate and cyclohexane (capsule solvents for preparing carbonless copy-paper) was >9% by weight. Thus the ligand is eminently suitable for encapsulation. The ligand is not volatile at 71 ° C. overnight.
Solubility in a solvent blend of tributyl phosphate, diethyl phthalate and cyclohexane (capsule solvents for preparing carbonless copy-paper) was 3% by weight. Thus the ligand is eminently suitable for encapsulation. The ligand is not volatile at 71 ° C. overnight.
*THE SOLUBILITY WAS DEEMED PREFERABLE IF IT WAS GREATER THAN 2% IN THE
FILL MIX AT ROOM TEMPERATURE FOR 3 DAYS. THE FILL MIX COMPRISED
TRIBUTYLPHOSPHATE (26.5%); DIETHYLPHTHALATE (17.6%); AND CYCLOHEXANE

Compound | Chroma [1] | Hunter Coordinates L [1] | Hunter Coordinates a [1] | Hunter Coordinates b [1] | color of nickel / transition metal coordination compound (in words) [1] | Dye Solubility ([2]; 4320 min) | Image Color [1] | measured reflectance density (in words) ([1]; nickel complex) | Chroma (in words) ([1]; nickel complex) | Dye Solubility ([2]; fill mix tributylphosphate (26.5%), diethylphthalate (17.6%), cyclohexane (55.9%), room temperature, 3 days (Table 2))
CC(C)(C)c1cc(C=NN=C(N)C(N)=NN=Cc2cc(C(C)(C)C)c(O)c(C(C)(C)C)c2)cc(C(C)(C)C)c1O [Compound 2, Ethanediimidic acid bis[(4-hydroxy-3,5-di-t-butylphenylmethylene)hydrazide]] | 19.2 | 90.0 | -8.0 | 17.6 | much weaker | > 2.0% | – | – | lower Chroma | –
NC(=NN=Cc1cc(Br)ccc1O)C(N)=NN=Cc1cc(Br)ccc1O [Compound 3, Ethanediimidic acid bis[(2-hydroxy-5-bromophenylmethylene)hydrazide]] | 41.1 | 81.9 | -7.5 | 40.5 | – | < 2.0% | Yellow | – | – | –
NC(=NN=Cc1cc([N+](=O)[O-])ccc1O)C(N)=NN=Cc1cc([N+](=O)[O-])ccc1O [Compound 4, Ethanediimidic acid bis[(2-hydroxy-5-nitrophenylmethylene)hydrazide]] | 40.1 | 83.9 | -9.7 | 38.9 | – | – | Yellow | – | – | < 2.0%
CCN(CC)c1ccc(C=NN=C(N)C(N)=NN=Cc2ccc(N(CC)CC)cc2O)c(O)c1 [Compound 5, Ethanediimidic acid bis[(2-hydroxy-4-diethylaminophenylmethylene)hydrazide]] | 41.4 | 80.9 | -5.2 | 41.0 | – | < 2.0% | Yellow | – | – | –
CC(=NN=C(N)C(N)=NN=C(C)c1ccccc1O)c1ccccc1O [Compound 6, Ethanediimidic acid bis[(2-hydroxyphenyl-methyl-methylene)hydrazide]] | 20.1 | 48.3 | -5.3 | 19.4 | yellow | < 2.0% | Yellow | – | – | –
CCOC(=O)CC(C)=NN=C(N)C(N)=NN=C(C)CC(=O)OCC [Compound 7] | 15.4 | 89.4 | -5.8 | 14.3 | – | > 2.0% | – | – | – | –
NC(=NN=C(c1ccccc1)c1ccc(O)cc1O)C(N)=NN=C(c1ccccc1)c1ccc(O)cc1O [Compound 8, Ethanediimidic acid bis[(2,4-dihydroxyphenyl-phenyl-methylene)hydrazide]] | 18.0 | 88.0 | -6.0 | 17.0 | – | < 2.0% | – | – | – | –
CCCCCCC=NN=C(N)C(N)=NN=CCCCCCC [Compound 15] | 11.6 | 89.9 | -4.2 | 10.8 | very weakly yellow; also recorded: weak yellow | > 2.0% | – | low | low and low Chroma value | –

The next lines start with results.

Chroma [1] | Hunter Coordinates L [1] | Hunter Coordinates a [1] | Hunter Coordinates b [1] | color of nickel / transition metal coordination compound (in words) [1] | Dye Solubility ([2]; 4320 min) | Image Color [1] | measured reflectance density (in words) ([1]; nickel complex) | Compound | Chroma (in words) ([1]; nickel complex) | Dye Solubility ([2]; fill mix tributylphosphate (26.5%), diethylphthalate (17.6%), cyclohexane (55.9%), room temperature, 3 days (Table 2))
36.2 | 86.4 | -11.1 | 34.5 | – | < 2.0% | Yellow | – | COc1cccc(C=NN=C(N)C(N)=NN=Cc2cccc(OC)c2O)c1O [Compound 10, Ethanediimidic acid bis[(2-hydroxy-3-methoxyphenylmethylene)hydrazide]] | – | –
39.3 | 88.4 | -15.2 | 36.2 | – | < 2.0% | Yellow | – | CCOc1cccc(C=NN=C(N)C(N)=NN=Cc2cccc(OCC)c2O)c1O [Compound 11, Ethanediimidic acid bis[(2-hydroxy-3-ethoxyphenylmethylene)hydrazide]] | – | –
25.8 | 89.4 | -10.6 | 23.5 | – | < 2.0% | Yellow | – | NC(=NN=Cc1ccco1)C(N)=NN=Cc1ccco1 [Compound 12, Ethanediimidic acid bis[(furylmethylene)hydrazide]] | intermediate between that of aliphatic and the preferred o-substituted ligands | –
– | 72.6 | 11.2 | 13.9 | – | < 2.0% | Brown | – | NC(=NN=Cc1cccs1)C(N)=NN=Cc1cccs1 [Compound 13, Ethanediimidic acid bis[(2-thienylmethylene)hydrazide]] | intermediate between that of aliphatic and the preferred o-substituted ligands | –
35.0 | 86.5 | -11.0 | 33.2 | – | < 2.0% | Yellow | – | NC(=NN=Cc1ccccn1)C(N)=NN=Cc1ccccn1 [Compound 14, Ethanediimidic acid bis[(2-pyridylmethylene)hydrazide]] | intermediate between that of aliphatic and the preferred o-substituted ligands | –
28.5 | 86.6 | -6.5 | 27.8 | – | < 2.0% | Yellow | – | NC(=NN=Cc1c(O)ccc2ccccc12)C(N)=NN=Cc1c(O)ccc2ccccc12 [Compound 17, Ethanediimidic acid bis[(2-hydroxy-1-naphthylmethylene)hydrazide]] | – | –
